Key:
[1] = target: hα3β4 nAChR (Homo sapiens, UniProt P30926+P32297); assay: TEVC selectivity, hα3β4 nAChR in oocytes; type: cell-based; conditions: 30 μM, 30 s preapplication, 3 μM (S)-nicotine (EC20–EC40)
Experimental: (§1) The cDNAs for the various WT and chimeric CLR subunits were linearized and subsequently transcribed and capped mMessage mMachine T7 RNA transcription kit (Ambion, Waltham, MA). […]
(§2) On the day of experiment, all compound dilutions were prepared in a saline solution [115 mM NaCl, 2.5 mM KCl, 10 mM MOPS (pH 7.5), 1.8 mM CaCl2, 0.1 mM MgCl2] and pH adjusted to 7.5 (if needed). […] Currents were recorded using pCLAMP 10 (Molecular Devices, Sunnyvale, CA). […]
(§3) In all recordings, the compounds or compound combinations were applied in the bath until the peak current decayed to a steady state (up to 30 sec at the most). […] The functional properties of the modulators at the CLRs were determined by pre-application of the modulator to the perfusate 30 sec and followed by co-application of the modulator and the agonist to the perfusate. […]
(§4) Data analysis of the results from the TEVC recordings were performed using Clampfit software version 10.5 (Molecular Devices, Crawley, UK) and GraphPad Prism version 7.0c (GraphPad Software, Inc. La Jolla, CA). […] I-V relationships were analyzed by fitting the curves with a third order polynomial model. […]

[2] = system: ZAC/hα1-Gly; assay: TEVC, chimeric ZAC/hα1-Gly receptor in oocytes; type: cell-based, human; conditions: 30 μM, EC20–EC40 Zn2+
Experimental: as §1, §2, §3, §4

[3] = target: T1, hEAAT3 (Homo sapiens, UniProt P43005); assay: FMP assay at hEAAT3-HEK293 cells (glutamate-induced response); type: cell-based; conditions: concentrations up to 100 μM, data not shown
T1 construct: expressed in transfected cells
T1 sequence (P43005 1-524): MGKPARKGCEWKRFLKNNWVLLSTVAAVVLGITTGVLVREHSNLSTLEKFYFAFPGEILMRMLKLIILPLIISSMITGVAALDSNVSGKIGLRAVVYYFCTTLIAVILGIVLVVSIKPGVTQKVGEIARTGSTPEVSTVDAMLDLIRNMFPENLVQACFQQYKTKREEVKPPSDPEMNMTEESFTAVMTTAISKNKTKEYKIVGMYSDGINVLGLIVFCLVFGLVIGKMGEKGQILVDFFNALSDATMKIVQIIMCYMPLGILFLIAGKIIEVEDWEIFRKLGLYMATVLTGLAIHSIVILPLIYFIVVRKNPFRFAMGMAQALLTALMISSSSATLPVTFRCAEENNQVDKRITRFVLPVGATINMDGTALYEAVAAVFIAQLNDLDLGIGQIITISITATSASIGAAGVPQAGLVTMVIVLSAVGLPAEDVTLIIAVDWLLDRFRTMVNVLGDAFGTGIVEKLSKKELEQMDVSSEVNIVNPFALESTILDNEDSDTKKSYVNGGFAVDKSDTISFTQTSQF

[4] = target: T2, h5-HT3A (Homo sapiens, UniProt P46098); assay: FMP assay at h5-HT3A-HEK293 cells; type: cell-based; conditions: concentrations up to 100 μM, data not shown
T2 construct: expressed in transfected cells
T2 sequence (P46098 24-478): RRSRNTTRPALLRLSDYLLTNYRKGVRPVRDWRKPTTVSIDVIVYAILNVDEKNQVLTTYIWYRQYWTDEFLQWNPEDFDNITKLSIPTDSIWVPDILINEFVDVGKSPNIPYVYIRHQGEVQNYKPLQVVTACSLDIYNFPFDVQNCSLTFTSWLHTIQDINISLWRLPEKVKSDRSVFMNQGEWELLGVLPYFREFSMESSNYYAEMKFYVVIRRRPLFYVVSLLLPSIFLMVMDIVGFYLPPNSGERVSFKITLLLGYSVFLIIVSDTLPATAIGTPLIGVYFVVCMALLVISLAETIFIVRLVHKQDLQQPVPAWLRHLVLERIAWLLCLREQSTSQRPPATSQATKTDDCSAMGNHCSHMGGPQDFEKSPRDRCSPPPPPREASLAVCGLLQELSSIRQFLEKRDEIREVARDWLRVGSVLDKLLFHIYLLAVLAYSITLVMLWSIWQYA

[5] = target: T3, rα3β4-nAChR (Rattus norvegicus, UniProt P04757+P12392); assay: FMP assay at rα3β4-nAChR-HEK293 cells ((S)-nicotine-induced response); type: cell-based; conditions: concentrations up to 100 μM, data not shown
T3 construct: expressed in transfected cells
T3 sequence (P04757 26-499): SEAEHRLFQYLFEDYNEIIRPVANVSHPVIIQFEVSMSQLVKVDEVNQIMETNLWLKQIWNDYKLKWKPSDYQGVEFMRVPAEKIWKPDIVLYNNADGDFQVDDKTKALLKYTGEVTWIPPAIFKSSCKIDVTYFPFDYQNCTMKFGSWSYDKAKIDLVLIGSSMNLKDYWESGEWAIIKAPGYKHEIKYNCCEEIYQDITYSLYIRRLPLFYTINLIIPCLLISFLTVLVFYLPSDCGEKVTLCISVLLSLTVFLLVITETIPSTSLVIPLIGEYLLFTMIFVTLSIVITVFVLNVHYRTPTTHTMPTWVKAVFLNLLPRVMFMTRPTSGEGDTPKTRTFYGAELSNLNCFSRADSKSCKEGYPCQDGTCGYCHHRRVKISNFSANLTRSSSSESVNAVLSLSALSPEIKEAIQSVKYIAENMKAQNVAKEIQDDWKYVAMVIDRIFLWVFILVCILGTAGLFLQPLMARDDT
T3 sequence (P12392 22-495 limits assumed): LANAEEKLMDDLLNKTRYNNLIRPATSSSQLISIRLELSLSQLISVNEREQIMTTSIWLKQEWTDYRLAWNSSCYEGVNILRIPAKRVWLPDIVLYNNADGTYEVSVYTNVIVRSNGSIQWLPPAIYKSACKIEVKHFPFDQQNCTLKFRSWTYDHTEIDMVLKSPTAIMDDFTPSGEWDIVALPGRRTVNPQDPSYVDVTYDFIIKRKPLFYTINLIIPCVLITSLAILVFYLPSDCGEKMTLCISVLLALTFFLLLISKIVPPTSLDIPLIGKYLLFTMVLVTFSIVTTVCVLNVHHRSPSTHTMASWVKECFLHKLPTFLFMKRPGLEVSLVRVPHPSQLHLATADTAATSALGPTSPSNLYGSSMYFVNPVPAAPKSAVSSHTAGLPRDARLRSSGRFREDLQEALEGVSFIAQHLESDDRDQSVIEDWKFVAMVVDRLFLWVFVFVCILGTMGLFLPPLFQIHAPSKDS

hα3β4 nAChR, sequence (P32297 32-505): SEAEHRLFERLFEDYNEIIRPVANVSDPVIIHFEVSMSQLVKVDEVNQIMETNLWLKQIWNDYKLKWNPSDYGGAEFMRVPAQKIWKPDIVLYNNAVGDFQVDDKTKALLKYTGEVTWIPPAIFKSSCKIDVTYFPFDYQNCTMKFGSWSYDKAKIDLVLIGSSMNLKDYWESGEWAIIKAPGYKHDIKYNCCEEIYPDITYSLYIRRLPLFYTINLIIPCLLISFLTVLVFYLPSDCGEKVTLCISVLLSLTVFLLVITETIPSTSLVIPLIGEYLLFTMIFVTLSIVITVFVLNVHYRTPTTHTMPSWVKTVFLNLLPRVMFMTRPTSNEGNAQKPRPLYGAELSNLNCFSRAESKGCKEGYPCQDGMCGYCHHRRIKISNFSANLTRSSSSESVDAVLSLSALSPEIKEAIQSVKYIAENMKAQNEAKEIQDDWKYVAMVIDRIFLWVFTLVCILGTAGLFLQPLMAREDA
hα3β4 nAChR, sequence (P30926 22-498): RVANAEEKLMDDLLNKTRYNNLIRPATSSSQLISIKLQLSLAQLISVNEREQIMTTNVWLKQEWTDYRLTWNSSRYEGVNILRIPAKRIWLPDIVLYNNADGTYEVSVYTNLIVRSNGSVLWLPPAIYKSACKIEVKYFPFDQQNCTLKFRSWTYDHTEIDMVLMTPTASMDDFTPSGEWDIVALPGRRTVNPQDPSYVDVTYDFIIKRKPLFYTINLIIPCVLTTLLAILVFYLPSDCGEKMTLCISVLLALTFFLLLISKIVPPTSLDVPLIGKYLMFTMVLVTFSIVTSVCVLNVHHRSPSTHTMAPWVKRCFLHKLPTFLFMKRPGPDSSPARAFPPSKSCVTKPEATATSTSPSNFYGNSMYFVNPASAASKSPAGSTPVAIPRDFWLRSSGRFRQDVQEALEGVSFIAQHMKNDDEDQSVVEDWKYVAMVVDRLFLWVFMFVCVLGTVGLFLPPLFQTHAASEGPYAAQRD

Row | Agonist, antagonist or PAM activity [1] | Modulation of Zn2+-induced response [2] | Effect on glutamate-induced response [3] | Effect on 5-HT-induced response [4] | Effect on (S)-nicotine-induced response [5] | SMILES
1 | did not display significant activity | negligible effect | – | – | – | CC(C)(C)c1csc(NC(=O)c2cccc(F)c2)n1 [5a, N-(4-(tert-butyl)thiazol-2-yl)-3-fluorobenzamide]
2 | – | – | did not affect | did not affect | did not affect | COC(=O)c1sc(NC(=O)c2cc(Br)ccc2Cl)nc1C [compound 1, 2-(5-bromo-2-chlorobenzamido)-4-methylthiazole-5-methyl ester]
